In ChEMBL document CHEMBL4842392, “Targeting KRAS Mutant Protein Inhibitor for Potential Treatment in Cancer” (ACS Med Chem Lett, 2021):
Several values for one entry are separate records, joined by “and”; a condition that tells them apart may be missing. Identical values can stand only once.

What was measured:
GTPase KRas [1] = target: T1, GTPase KRas (Homo sapiens, UniProt P01116, G12C); assay: Inhibition of GDP-loaded His-tagged KRAS G12C mutant (2 to 182 residues) (unknown origin) assessed as inhibition of SOS1-catalyzed nucleotide exchange preincubated for 1 hr followed by SOS1 addition measured after 1 hr by TR-FRET assay
NCI-H358 = assay: Antiproliferative activity against human NCI-H358 cells assessed as inhibition of cell proliferation incubated for 6 days by CCK8 assay; format: functional, cell-based
GTPase KRas [2] = target: T1, GTPase KRas; assay: Inhibition of KRAS G12C mutant in human NCI-H358 cells assessed as reduction in ERK phosphorylation incubated for 2 hrs by HTRF assay; format: cell-based
[3] = Oral bioavailability in Beagle dog at 10 mg/kg measured up to 24 hrs by LC-MS analysis; format: ADME, organism-based, Canis lupus familiaris; conditions: in vivo

Row | SMILES | IC50 (GTPase KRas [1]) | IC50 (NCI-H358; Homo sapiens, NCI-H358, 144 h) [nM] | IC50 (GTPase KRas [2]) | F ([3]; 10 mg/kg, 24 h) | IC50 (NCI-H358; nci-h358) [nM] | bioavailability ([3]; beagle) [%]
1 | C=CC(=O)N1CCN(c2c(C#N)c(=O)n(-c3c(C(C)C)ncnc3C(C)C)c3nc(-c4c(N)c(Cl)cc(Cl)c4F)c(Cl)cc23)CC1 | 4.74 nM | 32 | 18.5 nM | – | – | –
2 | C=CC(=O)N1CCN(c2c(C#N)c(=O)n(-c3c(C)ccnc3C(C)C)c3nc(-c4c(N)c(Cl)cc(Cl)c4F)c(Cl)cc23)C[C@@H]1CC#N | 6.66 nM | – | 12.3 nM | – | – | –
3 | C=CC(=O)N1CCN(c2c(C#N)c(=O)n(-c3c(C)ccnc3C(C)C)c3nc(-c4c(N)c(Cl)cc(Cl)c4F)c(Cl)cc23)CC1 | 1.95 nM and 1.54 nM | 27.6 | 10.4 nM and 11.7 nM | 98.5% and 63.1% | 14.5 | –
4 | C=CC(=O)N1CCN(c2c(C#N)c(=O)n(-c3c(C(C)C)ncnc3C(C)C)c3nc(-c4c(N)cccc4F)c(Cl)cc23)CC1 | – | – | 20.1 nM | – | – | –
5 | C=CC(=O)N1CCN(c2c(C#N)c(=O)n(-c3c(C)ccnc3C(C)C)c3nc(-c4c(N)c(Cl)cc(Cl)c4F)c(Cl)cc23)CC1CC#N (centres undefined) | 5.19 nM | 35.6 | 14.9 nM | – | – | –
6 | C=CC(=O)N1CCN(c2c(C#N)c(=O)n(-c3c(C)ccnc3C(C)C)c3nc(-c4c(N)c(Cl)cc(Cl)c4F)c(Cl)cc23)C[C@H]1C | 2.54 nM | 25.4 | 28.8 nM | – | – | 70.3
7 | C=CC(=O)N1[C@H](C)CN(c2c(C#N)c(=O)n(-c3c(C)ccnc3C(C)C)c3nc(-c4c(N)c(Cl)cc(Cl)c4F)c(Cl)cc23)C[C@@H]1C | 2.83 nM | 17.5 | 38.1 nM | – | – | –
8 | C=CC(=O)N1CCN(c2c(C#N)c(=O)n(-c3c(C)ccnc3C(C)C)c3nc(-c4ccccc4F)c(Cl)cc23)CC1 | 4.4 nM | 52.1 | 29.9 nM | – | – | –
